Assay results reported in patent publication US20110281950A1, “COMPOSITIONS AND METHODS FOR REDUCING PROLIFERATION AND VIABILITY OF LYMPHOBLASTOID CELLS” (priority 2010, published 2011).
Where two headings read alike, the source gives them in different places.

Key:
Format in all cases: cell-based
[1] = tested on: EBV-specific CD8+ T-cells; assay: EBV-specific T-cell expansion, RAK tetramer (Example 2A); settings: 100, 250, 500 nM, two weeks co-culture with irradiated LCLs
Experimental: The effect of AR-42 on EBV-specific T-cell expansion was determined. Irradiated LCLs were added to purified PBMCs and maintained in co-culture for two weeks with AR-42 (100 nM, 250 nM, 500 nM). After two weeks, the EBV-specific T-cell expansion was measured using the RAK tetramer. This tetramer contains the […] peptide which binds the HLA-B8 MHC type I epitope, and can be used to identify EBV-specific (BZLF1 specific) CD8+ T-cells.

purified CD56+ NK cells = assay: Cell surface protein expression on NK cells, flow cytometry (Example 8); settings: 24 hours; for expression of activating NK cell receptor NKG2D: AR-42 100, 500 nM, SAHA 100, 1000 nM
Excerpt: The mechanism by which HDAC inhibition affects NK cell-driven ADCC was investigated in vitro. […] Viable cells were then collected and stained with monoclonal antibodies specific for cell surface proteins with known stimulatory (NKG2D, FcγRIII) or inhibitory (KIR) activity. Protein expression was then quantified via flow cytometry.

[2] = tested on: NK cell-driven antibody dependent cellular cytotoxicity (ADCC) against target B cells; assay: NK cell-driven ADCC, four hour 51Cr release assay (Example 3)
Experimental: (§1) The effects of AR-42 on EBV-specific cytotoxic T cell (CTL) cytotoxicity were assessed in vitro. Peripheral blood mononuclear cells (PBMC) and autologous EBV+ LCL were co-culturing in media containing IL-2 (50 μM) and either DSMO (control) or AR-42 (100 nM). EBV-specific CTLs were identified with anti-CD8 mAb and HLAB8-RAK tetramer, upon a 12 day expansion, the results of which are shown in FIG. 10. […] At day 13, the EBV-specific CTLs were incubated overnight in 100, 250, & 500 nM AR-42+IL-2 (50 μM). The next day, a four hour ^51Cr release assay was performed on each incubated sample in order to access the effects of AR-42 on EBV-specific cytotoxic T cell (CTL) cytotoxicity. This is shown schematically in FIG. 2, which illustrates autologous target EBV+ LCLs are labeled with ^51Cr, which is actively internalized by each cell via pumps in its membrane; effector CTLs are counted and plated at desired effector-target ratios; labeled targets are incubated with effectors for four hours; and lysed targets release intracellular ^51Cr into the supernatant, which is harvested and analyzed for radioactivity using a gamma counter. Effector-target ratios of 50:1, 25:1, and 12.5:1 were used.
The effects of AR-42 on NK cell-driven antibody dependent cellular cytotoxicity (ADCC) were assessed in vitro. NK cells were treated overnight with AR-42 (100 nM, 250 nM, 500 nM) or Rituximab (anti-CD20) or Herceptin (anti-erbB2). Rituximab (anti-CD20) was the antibody of choice for the assay because of its wide clinical use and proven efficacy against B cell lymphomas that express CD20 antigen. Herceptin (anti-erbB2), a commonly used breast cancer drug, was used as a negative control. The effect of AR-42 on NK cell-driven antibody dependent cellular cytotoxicity (ADCC) was assessed using a four hour ^51Cr release assay. The four hour ^51Cr release assay was performed as described with respect to Example 2A, except that effector-target ratios of 25:1, 12.5:1, & 6.25:1 were used.

Purified NK cells [3] = assay: NK cell IFNγ ELISPOT, continuous treatment or washout (Example 7); settings: control 569 spots
Excerpt: (§2) Purified NK cells in DMSO were used as a control. The cells were subsequently analyzed in an IFNγ ELISPOT assay or a ^51Cr release cytotoxicity assay.

[4] = tested on: Activated EBV-specific T cells; assay: T cell ELISPOT with and without AR-42 washout (Example 6); settings: long-term exposure, 500 nM
Experimental: Activated EBV-specific T cells expanded in the presence of AR-42 were further incubated in media with and without AR-42. After 5 days, the T cells were stimulated with EBV+ LCLs in an ELISPOT assay to determine IFNγ and GzB secretion potentials.

[5] = tested on: EBV-specific cytotoxic T cell (CTL) cytotoxicity against autologous EBV+ LCLs; assay: EBV-specific CTL cytotoxicity, four hour 51Cr release assay (Example 2)
Experimental: as §1

[6] = tested on: Activated EBV-specific T cells; assay: T cell IFNγ and GzB ELISPOT (Example 4); settings: 4 days; for T cell IFNγ secretion, ELISPOT: untreated control 98 spots; for T cell GzB secretion, ELISPOT: untreated control 107 spots
Experimental: The production of proteins associated with the T cell cytotoxic response (interferon-γ, granzyme B) was determined in vitro. Activated EBV-specific T cells were initially treated for 4 days (T) with 100 nM or 500 nM AR-42 and further stimulated with EBV+ LCLs (effector-target ratio: 1:1) in an ELISPOT assay to determine IFNγ and GzB secretion potentials. Release of interferon-gamma (IFNγ) or granzyme B (GzB) was visualized using monoclonal IFNγ/GzB antibodies with BCIP/NBT substrate solution. Results were quantified by an enzyme-linked immunosorbent spot assay (ELISPOT) analyzer.

LCLs (C7M3, DC9) = assay: Viability and proliferation of lymphoblastoid cell lines (Example 1A); settings: 100, 250, 500, 750 and 1000 nM
Experimental: The effects of AR-42 on the viability and proliferation of lymphoblastoid cell lines was determined. […] Cell viability was analyzed by annexin/PI staining and flow cytometry. Cell counts were measured at day 5. The results are seen in FIGS. 14A and 14B. In FIGS. 14A and 14B, the standard deviation represents the results from triplicate experiments.

Purified NK cells [7] = assay: NK cell 51Cr release cytotoxicity assay, continuous treatment or washout (Example 7); settings: control 64%
Excerpt: as §2

[8] = tested on: peripheral blood mononuclear cells (PBMCs); assay: PBMC viability, PI staining and flow cytometry (Example 9); settings: 100, 250, 500, 1000 nM, 2 and 4 days
Experimental: The effect of AR-42 on the viability of peripheral blood mononuclear cells (PBMCs) was determined. PBMCs were isolated from three random donor leukopaks and incubated with AR-42 (100 nM, 250 nM, 500 nM, 1000 nM) for 2 and 4 days. Viability was assessed by PI staining using flow cytometry. All results were normalized relative to untreated DMSO controls. […] The standard deviations in FIG. 15 represent the mean of the three leukopaks.

[9] = tested on: EBV+ transformed B lymphoblastoid cell lines (EBV+ LCL); assay: Viability of EBV+ LCL cultured with HDAC inhibitors, annexin/PI staining and flow cytometry (Example 1)
Experimental: Cell viability was then analyzed every 24 hours by annexin/PI staining and flow cytometry.

EBV+ LCLs = assay: Cell surface protein expression on EBV+ LCLs, flow cytometry (Example 8)
Purified NK cells [10] = assay: NK cell IFNγ and GzB ELISPOT (Example 5); settings: for NK cell GzB, ELISPOT: untreated control 91 spots; for NK cell IFNγ, ELISPOT: untreated control 314 spots
Experimental: Purified NK cells were initially treated overnight (NK) with 100 nM, 250 nM or 500 nM AR-42. The NK cells were further stimulated using inflammatory cytokines cytokines IL-2 (50 pM) and IL-12 (10 ng/ml) in an ELISPOT assay to determine IFNγ and GzB secretion potentials. Results were quantified by an ELISPOT analyzer.

Compound: CC(C)C(C(=O)Nc1ccc(C(=O)NO)cc1)c1ccccc1 (stereo not drawn) [AR-42, N-hydroxy-4-(3-methyl-2-phenyl-butyrylamino)-benzamide]
- EBV-specific T-cell expansion [1]: decreases EBV-specific T-cell expansion in a dose dependent manner
- expression of inhibitory receptor KIR on NK cells (purified CD56+ NK cells; especially at 500 nM): down modulates
- expression of activating NK cell receptor NKG2D (purified CD56+ NK cells): down modulate
- NK cytotoxicity (ADCC) in combination with rituximab ([2]; 100 nM overnight, highest effector-target ratio (25:1)): 36%
- NK cytotoxicity (ADCC) in combination with rituximab ([2]; 250 nM overnight, highest effector-target ratio (25:1)): 23%
- NK cytotoxicity (ADCC) in combination with rituximab ([2]; 500 nM overnight): 1.1%
- NK cell IFNγ secretion, ELISPOT (Purified NK cells [3]; AR-42 100 nM treated): 207 spots
- NK cell IFNγ secretion, ELISPOT (Purified NK cells [3]; AR-42 100 nM, 24 hour treatment+24 hour washout): 418 spots
- NK cell IFNγ secretion, ELISPOT (Purified NK cells [3]; AR-42 250 nM treated): 10 spots
- NK cell IFNγ secretion, ELISPOT (Purified NK cells [3]; AR-42 250 nM, 24 hour treatment+24 hour washout): 235 spots
- NK cell IFNγ secretion, ELISPOT (Purified NK cells [3]; AR-42 500 nM treated): 6 spots
- NK cell IFNγ secretion, ELISPOT (Purified NK cells [3]; AR-42 500 nM, 24 hour treatment+24 hour washout): 96 spots
- cytotoxic function of activated T cells [4]: eventual loss of cytotoxic function
- CTL cytotoxicity ([5]; 100 nM overnight, highest effector-target ratio (50:1)): 19%
- CTL cytotoxicity ([5]; 250 nM overnight, highest effector-target ratio (50:1)): 12%
- CTL cytotoxicity ([5]; 500 nM overnight): −2%
- T cell IFNγ secretion, ELISPOT ([6]; 100 nM): 47 spots
- T cell GzB secretion, ELISPOT ([6]; 100 nM): 99 spots
- T cell IFNγ secretion, ELISPOT ([6]; 500 nM): 3 spots
- T cell GzB secretion, ELISPOT ([6]; 500 nM): 5 spots
- antiproliferative activity in EBV+ LCL cell lines (LCLs (C7M3, DC9)): antiproliferative activity in EBV+ LCL cell lines in a dose dependent manner
- NK cytotoxic activity (Purified NK cells [7]; 100 nM treated, max E:T ratio): 36%
- NK cytotoxic activity (Purified NK cells [7]; 100 nM, washout): 41%
- NK cytotoxic activity (Purified NK cells [7]; 250 nM treated, max E:T ratio): 23%
- NK cytotoxic activity (Purified NK cells [7]; 250 nM, washout): 36%
- NK cytotoxic activity (Purified NK cells [7]; 500 nM treated, max E:T ratio): 1%
- NK cytotoxic activity (Purified NK cells [7]; 500 nM, washout): 42%
- viability of PBMCs [8]: decreases the viability of PBMCs in a dose dependent manner
- concentration that inhibits EBV+ LCL growth [9]: ≥ 250 nM
- viability at day 4 compared with day 2 ([9]; 750 and 1000 nM): higher viability by day 4
- viability at 0.25 µM ([9]; Lymphoblastoid cell, 48 h, 250 nM, day 2, read-out: viability of B cell population): 87%
- viability at 0.5 µM ([9]; Lymphoblastoid cell, 48 h, 500 nM, day 2, read-out: viability of B cell population): 75%
- viability at 0.75 µM ([9]; Lymphoblastoid cell, 48 h, 750 nM, day 2, read-out: viability of B cell population): 62%
- viability at 1 µM ([9]; Lymphoblastoid cell, 48 h, 1000 nM, day 2, read-out: viability of B cell population): 54%
- Mic A/B (NKG2D ligand) expression on EBV+ LCLs (EBV+ LCLs; 500 nM and 1000 nM, 24 and 48 hours): unaffected
- MHC Class I expression (KIR ligand) on EBV+ LCLs (EBV+ LCLs; higher concentrations (500 nM and 1000 nM, 24 and 48 hours)): down modulates
- NK cell GzB, ELISPOT (Purified NK cells [10]; 100 nM overnight): 22 spots
- NK cell IFNγ, ELISPOT (Purified NK cells [10]; 100 nM overnight): 63 spots
- NK cell GzB, ELISPOT (Purified NK cells [10]; 250 nM overnight): 7 spots
- NK cell IFNγ, ELISPOT (Purified NK cells [10]; 250 nM overnight): 10 spots
- NK cell GzB, ELISPOT (Purified NK cells [10]; 500 nM overnight): 10 spots
- NK cell IFNγ, ELISPOT (Purified NK cells [10]; 500 nM overnight): 1 spots

Compound: O=C(CCCCCCC(=O)Nc1ccccc1)NO [SAHA, suberoylanilide hydroxamic acid, reference compound]
- expression of activating NK cell receptor NKG2D (purified CD56+ NK cells): down modulate
- NK cell IFNγ secretion, ELISPOT (Purified NK cells [3]; SAHA 100 nM treated): 452 spots
- NK cell IFNγ secretion, ELISPOT (Purified NK cells [3]; SAHA 500 nM treated): 366 spots
- NK cell IFNγ secretion, ELISPOT (Purified NK cells [3]; SAHA 1000 nM treated): 166 spots
- B cell death ([9]; 250-2000 nM, 4 day incubation): little cell death
- viability at 4 µM ([9]; Lymphoblastoid cell, 96 h, 4000 nM, day 4, read-out: viability of B cell population): 69%

Compound: CCCC(CCC)C(=O)O [valproate, reference compound]
- NK cell IFNγ secretion, ELISPOT (Purified NK cells [3]; valproate 1 mM): 446 spots
- NK cell IFNγ secretion, ELISPOT (Purified NK cells [3]; valproate 2 mM): 238 spots
- viability at 2000 µM ([9]; Lymphoblastoid cell, 72 h, 2.0 mM, day 3, read-out: viability of B cell population): 83%
- viability at 3000 µM ([9]; Lymphoblastoid cell, 72 h, 3 mM, day 3, read-out: viability of B cell population): 73%
- viability at 4000 µM ([9]; Lymphoblastoid cell, 72 h, 4.0 mM, day 3, read-out: viability of B cell population): 63%
- viability at 4000 µM ([9]; Lymphoblastoid cell, 96 h, 4 mM, day 4, read-out: viability of B cell population): 71%

Compound: rituximab: anti-CD20 antibody used for the ADCC assay
- relative ADCC ([2]; NK cells not treated with AR-42, effector-target ratio 6.25:1): 52%
- relative ADCC ([2]; NK cells not treated with AR-42, effector-target ratio 12.5:1): 56%
- relative ADCC ([2]; NK cells not treated with AR-42, effector-target ratio 25:1): 64%
